Assay results: the supplement of paper PMC10307832

Key:
Test in all cases: relative viability (nuclei count vs DMSO), 5 days (fraction); higher = more cells survive
NCI-H1666 = test system: NCI-H1666
Procedure, shortened: (§1)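 Lung cancer cell lines, seeded in 1536-well plates, were treated the following day by pin tool with a single drug or with five library-drug doses (not always all listed) in √10 steps on top of a fixed anchor-drug dose. Cells were fixed and nuclei stained in one step after 5 days, and nuclei were counted. Relative viability is the nuclei count for treated wells divided by that for vehicle wells, reported as medians of duplicate plates.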

ABC-1 = test system: ABC-1
Procedure, shortened: as §1

NCI-H2126 = test system: NCI-H2126
Procedure, shortened: as §1

SK-LU-1 = test system: SK-LU-1
Procedure, shortened: as §1

LU99A = test system: LU99A
Procedure, shortened: as §1

RERF-LC-KJ = test system: RERF-LC-KJ
Procedure, shortened: as §1

NCI-H1755 = test system: NCI-H1755
Procedure, shortened: as §1

NCI-H322M = test system: NCI-H322M
Procedure, shortened: as §1

LXF-289 = test system: LXF-289
Procedure, shortened: as §1

NCI-H1792 = test system: NCI-H1792
Procedure, shortened: as §1

NCI-H1395 = test system: NCI-H1395
Procedure, shortened: as §1

CAL-12T = test system: CAL-12T
Procedure, shortened: as §1

HCC-44 = test system: HCC-44
Procedure, shortened: as §1

NCI-H1793 = test system: NCI-H1793
Procedure, shortened: as §1

NCI-H520 = test system: NCI-H520
Procedure, shortened: as §1

NCI-H1944 = test system: NCI-H1944
Procedure, shortened: as §1

NCI-H358 = test system: NCI-H358
Procedure, shortened: as §1

NCI-H3122 = test system: NCI-H3122
Procedure, shortened: as §1

HCC-827 = test system: HCC-827
Procedure, shortened: as §1

NCI-H2347 = test system: NCI-H2347
Procedure, shortened: as §1

## Cc1csc(=NC2CCCCC2)n1/N=C/c1ccc(O)c(O)c1O [MIM1] + CS(=O)(=O)CCNCc1ccc(-c2ccc3ncnc(Nc4ccc(OCc5cccc(F)c5)c(Cl)c4)c3c2)o1 [Lapatinib] (partner 2 µM)
NCI-H1666; first compound 0.2 µM
  relative viability: 0.662
NCI-H1666; first compound 0.6325 µM
  relative viability: 0.577
NCI-H1666; first compound 2 µM
  relative viability: 0.507
NCI-H1666; first compound 6.325 µM
  relative viability: 0.362
NCI-H1666; first compound 20 µM
  relative viability: 0.206
ABC-1; first compound 0.2 µM
  relative viability: 1.32
ABC-1; first compound 0.6325 µM
  relative viability: 1.24
ABC-1; first compound 2 µM
  relative viability: 1.31
ABC-1; first compound 6.325 µM
  relative viability: 1.06
ABC-1; first compound 20 µM
  relative viability: 1.11
NCI-H2126; first compound 0.2 µM
  relative viability: 0.763
NCI-H2126; first compound 0.6325 µM
  relative viability: 0.72
NCI-H2126; first compound 2 µM
  relative viability: 0.77
NCI-H2126; first compound 6.325 µM
  relative viability: 0.679
NCI-H2126; first compound 20 µM
  relative viability: 0.339
SK-LU-1; first compound 0.2 µM
  relative viability: 0.825
SK-LU-1; first compound 0.6325 µM
  relative viability: 0.839
SK-LU-1; first compound 2 µM
  relative viability: 0.791
SK-LU-1; first compound 6.325 µM
  relative viability: 0.72
SK-LU-1; first compound 20 µM
  relative viability: 0.325
LU99A; first compound 0.2 µM
  relative viability: 1.08
LU99A; first compound 0.6325 µM
  relative viability: 0.894
LU99A; first compound 2 µM
  relative viability: 0.779
LU99A; first compound 6.325 µM
  relative viability: 0.915
LU99A; first compound 20 µM
  relative viability: 0.282
RERF-LC-KJ; first compound 0.2 µM
  relative viability: 0.769
RERF-LC-KJ; first compound 0.6325 µM
  relative viability: 0.772
RERF-LC-KJ; first compound 2 µM
  relative viability: 0.795
RERF-LC-KJ; first compound 6.325 µM
  relative viability: 0.75
RERF-LC-KJ; first compound 20 µM
  relative viability: 0.3
NCI-H1755; first compound 0.2 µM
  relative viability: 1.04
NCI-H1755; first compound 0.6325 µM
  relative viability: 0.973
NCI-H1755; first compound 2 µM
  relative viability: 1.03
NCI-H1755; first compound 6.325 µM
  relative viability: 0.722
NCI-H1755; first compound 20 µM
  relative viability: 0.251
NCI-H322M; first compound 0.2 µM
  relative viability: 0.653
NCI-H322M; first compound 0.6325 µM
  relative viability: 0.531
NCI-H322M; first compound 2 µM
  relative viability: 0.532
NCI-H322M; first compound 6.325 µM
  relative viability: 0.577
NCI-H322M; first compound 20 µM
  relative viability: 0.801
LXF-289; first compound 0.2 µM
  relative viability: 0.868
LXF-289; first compound 0.6325 µM
  relative viability: 0.802
LXF-289; first compound 2 µM
  relative viability: 0.895
LXF-289; first compound 6.325 µM
  relative viability: 0.664
LXF-289; first compound 20 µM
  relative viability: 0.592
NCI-H1792; first compound 0.2 µM
  relative viability: 0.861
NCI-H1792; first compound 0.6325 µM
  relative viability: 0.897
NCI-H1792; first compound 2 µM
  relative viability: 0.983
NCI-H1792; first compound 6.325 µM
  relative viability: 0.527
NCI-H1792; first compound 20 µM
  relative viability: 0.294
NCI-H1395; first compound 0.2 µM
  relative viability: 1.14
NCI-H1395; first compound 0.6325 µM
  relative viability: 1.1
NCI-H1395; first compound 2 µM
  relative viability: 0.862
NCI-H1395; first compound 6.325 µM
  relative viability: 0.711
NCI-H1395; first compound 20 µM
  relative viability: 0.515
CAL-12T; first compound 0.2 µM
  relative viability: 0.615
CAL-12T; first compound 2 µM
  relative viability: 0.754
CAL-12T; first compound 6.325 µM
  relative viability: 0.578
CAL-12T; first compound 20 µM
  relative viability: 0.22
HCC-44; first compound 0.2 µM
  relative viability: 1.07
HCC-44; first compound 0.6325 µM
  relative viability: 0.969
HCC-44; first compound 2 µM
  relative viability: 0.798
HCC-44; first compound 6.325 µM
  relative viability: 0.346
HCC-44; first compound 20 µM
  relative viability: 0.128
NCI-H1793; first compound 0.2 µM
  relative viability: 0.768
NCI-H1793; first compound 0.6325 µM
  relative viability: 0.623
NCI-H1793; first compound 2 µM
  relative viability: 0.645
NCI-H1793; first compound 6.325 µM
  relative viability: 0.669
NCI-H1793; first compound 20 µM
  relative viability: 0.459
NCI-H520; first compound 0.2 µM
  relative viability: 0.823
NCI-H520; first compound 0.6325 µM
  relative viability: 0.691
NCI-H520; first compound 2 µM
  relative viability: 0.924
NCI-H520; first compound 6.325 µM
  relative viability: 0.691
NCI-H520; first compound 20 µM
  relative viability: 0.269
NCI-H1944; first compound 0.2 µM
  relative viability: 0.889
NCI-H1944; first compound 0.6325 µM
  relative viability: 0.805
NCI-H1944; first compound 2 µM
  relative viability: 0.491
NCI-H1944; first compound 6.325 µM
  relative viability: 0.535
NCI-H1944; first compound 20 µM
  relative viability: 0.445
NCI-H358; first compound 0.2 µM
  relative viability: 0.506
NCI-H358; first compound 0.6325 µM
  relative viability: 0.475
NCI-H358; first compound 2 µM
  relative viability: 0.433
NCI-H358; first compound 6.325 µM
  relative viability: 0.36
NCI-H358; first compound 20 µM
  relative viability: 0.303
NCI-H3122; first compound 0.2 µM
  relative viability: 1.02
NCI-H3122; first compound 0.6325 µM
  relative viability: 1.07
NCI-H3122; first compound 2 µM
  relative viability: 1.01
NCI-H3122; first compound 6.325 µM
  relative viability: 0.859
NCI-H3122; first compound 20 µM
  relative viability: 0.304
HCC-827; first compound 0.2 µM
  relative viability: 0.21
HCC-827; first compound 0.6325 µM
  relative viability: 0.181
HCC-827; first compound 2 µM
  relative viability: 0.198
HCC-827; first compound 6.325 µM
  relative viability: 0.179
HCC-827; first compound 20 µM
  relative viability: 0.248
NCI-H2347; first compound 0.2 µM
  relative viability: 0.941
NCI-H2347; first compound 0.6325 µM
  relative viability: 1.07
NCI-H2347; first compound 2 µM
  relative viability: 0.999
NCI-H2347; first compound 6.325 µM
  relative viability: 0.59
NCI-H2347; first compound 20 µM
  relative viability: 0.399
